From US20090269309A1, “Retinoic acid stimulates differentiation of pancreatic progenitor cells into insulin producing cells” (priority 2004, published 2009)
Values joined by “and” are separate entries in the source; they are usually repeats but may differ in a detail not shown here. Identical values can stand only once.

Test system: mouse embryonic day (e) 10 dorsal pancreatic buds
Test: Culture of e10 dorsal pancreatic bud explants with or without RA, endocrine cells scored by immunohistochemistry
Assay type: cell-based
Description: From mating between C57BL/6 (wild-type) mice, pregnant females were sacrificed ten days after the appearance of a vaginal plug, and embryos collected. The ten-day-old embryos were dissected in L15 medium (Gibco) using forceps and tungsten needles. The L15 medium is […]
At this embryonic stage the dorsal pancreatic bud can be seen as a round structure forming from the gut endoderm that can be dissected out from the surrounding tissues (see FIG. 3). Using a mouth pipette individual isolated pancreatic buds were placed on 0.4 μm, pore 3,28 12 mm Millicell-CM PICM01250 filters (Millipore) that were subsequently placed in a twenty-four well plate (Costar) where each well contained 400 μl culture medium, consisting of DMEM-glutamax1 (Gibco), 1×N2-supplement (Gibco) and PEST (Gibco).
The explants were cultured for six days in 37° C. and 5% CO2 in culture medium alone (control explants) or with 25 nM all-trans retinoic acid (Sigma) added to the medium.
After six days of culture the explants were washed twice in PBS, fixated in 4% PFA in PBS for 25 minutes followed by two more washes in PBS. Using a small pair of scissors the filter was cut around the explant and the filter piece with the explant attached to it was placed in Tissue Tek O.C.T. Compound 4583 (Sakura). In the Tissue Tek the explant was gently removed from the filter using tungsten needles. A small drop of Tissue Tek was applied on a glass slide (Menzel) and the explant was placed in the drop using forceps and tungsten needles. The glass slides were put on dry ice to freeze the drops and were then stored in −80° C.
The frozen explants were sectioned using a Cryostat into […] thick sections that were collected on Superfrost Plus glass slides (Menzel). All explants from one experiment were put on the same slides. The slides were placed in a hybridisation chamber and blocked with blocking solution, TBST (50 mMT nsHCl, pH7.4, 150 mM MaCl, 0,1% Triton X-100)+10% FCS (fetal calf serum), for one hour. After blocking, primary antibodies diluted in fresh blocking solution were added and the slides were incubated overnight at 4° C. The following primary antibodies were used: guinea-pig α insulin (Linco) diluted 1/200, rabbit α glucagon (Euro Diagnostica) diluted 1/1000 and rabbit anti-ngn3 (raised against a GST-ngn3 fusion protein by AgriSeraAB) diluted 1/400. The slides were washed 3×5 minutes in TBST before incubation with secondary antibodies; a guinea-pig alexa488 (Molecular Probes) diluted 1/1000 and α rabbitCy3 (Jackson) diluted 1/400, for one hour in room temperature. The slides were then washed again 3×5 minutes in TBST before they were mounted using Vectashield with DAPI (Vector). The slides were analysed using a Nikon fluorescence microscope. The cells stained for insulin and glucagos respectively were counted and divided by the total number of cells that was counted using the DAPI staining which stains DNA i.e. every cell nucleus.
To investigate a role for RA in pancreatic cell differentiation mouse embryonic day (e) 10 dorsal pancreatic buds, which primarily contain pancreatic stem cells and very few differentiated pancreatic cells, were cultured in serum free media with or without RA for six days. The in vitro cultured explants were then scored for the appearance of endocrine cells expressing glucagon and insulin by immunohistochemistry using antibodies specific for glucagon and insulin. In vitro cultivation in media alone generated a few glucagon-(˜10% of total cells) and insulin-positive (˜5% of total cells) cells but the majority of cells were of non-endocrine origin (FIGS. 1 A-C and data not shown). […] Moreover, RA preferentially stimulated the differentiation of insulin-positive cells, which increased ˜4.5 fold, whereas glucagon-positive cells increased only ˜1,5 fold (FIG. 1D-F).

## CC1=C(/C=C/C(C)=C/C=C/C(C)=C/C(=O)O)C(C)(C)CCC1 [RA, all-trans retinoic acid]
25 nM RA, 2 and 4 days of culture, versus medium alone
  increase in the number of ngn3-positive cells/total number of cells: five-fold increase
25 nM RA, versus medium alone, N=6
  effect on the number of glucagon cells: No significant effect
25 nM all-trans RA, six days of culture, versus explants in medium alone
  increase in the number of insulin positive cells/total number of cells: > 3 fold and ~4.5 fold
25 nM all-trans RA, six days, versus explants cultured in media alone
  increase in endocrine cells: more than 2 fold
25 nM all-trans RA, six days, versus media alone
  increase in glucagon-positive cells: ~1,5 fold
25 nM all-trans RA, six days, media alone ~15%
  endocrine cells (glucagon- and insulin-positive) of total cells: ~37%
